Measurements: patent US20210076677A1, “NOVEL PESTICIDAL COMBINATIONS” (priority 2017, published 2021)

Columns and labels:
[1] = test system: Helicoverpa armigera in tomato; assay: Field trial, fruit borer control in tomato (Colby synergy); assay type: in vivo; conditions: 10 days after application, Mancozeb + Azoxystrobin 1750 g/ha, Chlorantriniprole 150 g/ha
Procedure: Studies were conducted to compare the efficacy of the combination of amide insecticides with fungicides selected from the various classes and to compare their observed efficacy with the ‘expected_ efficacy when amide insecticides and fungicides were used to treat fungal and insect pests. Any difference between the observed and ‘expected_ efficacy could be attributed to synergy between the two compounds in the control of fungal and insect pests. The expected efficacy of a combination of amide insecticides with fungicides was calculated using the well-established Colby method.
In the Colby method, the expected (or predicted) response of a combination of actives is calculated by taking the product of the observed response for each individual component of the combination when applied alone divided by 100 and subtracting this value from the sum of the observed response for each component when applied alone. An unexpected enhancement in efficacy of the combination is then determined by comparing the observed response of the combination to the expected (or predicted) response as calculated from the observed response of each individual component alone. If the observed response of the combination is greater than the expected (or predicted) response, or stated conversely, if the difference between the observed and expected response is greater than zero, then the combination is said to be synergistic or unexpectedly effective. (Colby, S. R., Weeds, 1967(15), p. 20-22) The Colby method requires only a single dose of each active applied alone and the mixture of both doses. […]
The efficacy of the individual actives of the invention and their combinations were evaluated on various fungal and insect pests. […]
Further field trials were carried out to test the synergy of the combination amide […] chlorantriniprole in combination with fungicides for the control of Helicoverpa armigera in tomato. […] The percentage efficacy was calculated after 10 days of applications and the results are recorded in the table below: […]

[2] = test system: Alternaria solani in tomato; assay: Field trial, early blight control in tomato (Colby synergy); assay type: in vivo; conditions: 10 days after application, Mancozeb + Azoxystrobin 1750 g/ha, Chlorantriniprole 150 g/ha
Procedure: Studies were conducted to compare the efficacy of the combination of amide insecticides with fungicides selected from the various classes and to compare their observed efficacy with the ‘expected_ efficacy when amide insecticides and fungicides were used to treat fungal and insect pests. Any difference between the observed and ‘expected_ efficacy could be attributed to synergy between the two compounds in the control of fungal and insect pests. The expected efficacy of a combination of amide insecticides with fungicides was calculated using the well-established Colby method. […] An unexpected enhancement in efficacy of the combination is then determined by comparing the observed response of the combination to the expected (or predicted) response as calculated from the observed response of each individual component alone. If the observed response of the combination is greater than the expected (or predicted) response, or stated conversely, if the difference between the observed and expected response is greater than zero, then the combination is said to be synergistic or unexpectedly effective. (Colby, S. R., Weeds, 1967(15), p. 20-22) The Colby method requires only a single dose of each active applied alone and the mixture of both doses. The formula used to calculate the expected efficacy (EE) which was compared with the observed efficacy (OE) to determine the efficacy of the present invention is explained hereinbelow: […] The efficacy of the individual actives of the invention and their combinations were evaluated on various fungal and insect pests. The trial was carried out in Randomized Complete Block (RCB) method, all field trials were conducted using this method. Each trial was replicated three times and conducted under GEP guidelines. Application volumes were varied for each mixture. Such field trials were carried out at various locations so as to generate independent data, the locations were chosen randomly across India. […]

Q: Which “% control of pest, Fruit Borer control in tomato 10DAA, Actual” value (shortened to “% control of pest, Fruit Borer control”) ([1]; first trial (columns c2/c3)) does the source give for `CNC(=O)c1cc(Cl)cc(C)c1NC(=O)c1cc(Br)nn1-c1ncccc1Cl` [Chlorantriniprole, chlorantraniliprole] here?
A: 75.8%

Q: And the “% control of pest, Fruit Borer control” value ([1]; second trial (columns c4/c5))?
A: 86.4%

Q: What about the “% control of pest, Fruit Borer control” value ([1]; third trial (columns c6/c7)) of the same compound?
A: 88.4%

Q: What about the “% Disease control, Early Blight Control in tomato 10DAA, Actual” value (“% Disease control, Early Blight Control” below) ([2]; first trial (columns c2/c3)) of the same compound?
A: 1.91%

Q: And the “% Disease control, Early Blight Control” value ([2]; second trial (columns c4/c5))?
A: 1.86%

Q: And the “% Disease control, Early Blight Control” value ([2]; third trial (columns c6/c7))?
A: 2.70%
